Reference: patent publication US20240228973A9, “NON-ALCOHOLIC FATTY LIVER ARTIFICIAL TISSUE MODEL” (CELLARTGEN INC., priority 2021, published 2024)

Legend:
[1] = system: normal liver organoids; assay: Viability of normal liver organoids treated with the drug (cytotoxicity); format: cell-based, human
Protocol: Also, when the viability of the normal liver organoids treated with the drug was analyzed to evaluate the cytotoxicity depending on the concentration of the drug, it was confirmed that the viability was 80% or more at 1 μM, 70% at 10 μM, and about 60% at 100 μM (FIG. 15B). That is, it was confirmed that liver toxicity increased as the treatment concentration of OCA increased.
Also, when the viability of the normal liver organoids treated with the drug was analyzed to evaluate the cytotoxicity depending on the concentration of the drug, it was confirmed that the viability was 70% or more at 1 μM to 10 μM and about 50% at 100 μM (FIG. 16B).
Also, when the viability of the normal liver organoids treated with the drug was analyzed to evaluate the cytotoxicity depending on the concentration of the drug, it was confirmed that the viability was not affected at a concentration of up to 1 μM, and it was 80% or more at 10 μM and about 60% at 100 μM (FIG. 17B).

[2] = system: human tissue-derived non-alcoholic steatohepatitis (NASH) liver organoids; assay: Drug efficacy evaluation in human tissue-derived NASH liver organoids co-cultured with EC, KC and HSC in LEM-Chip; format: cell-based
Excerpt: (§1) Steatohepatitis (NASH) was induced in liver organoids in which a liver tissue microenvironment [vascular endothelial cells (E)+Kupffer cells (K)+hepatic stellate cells (S)] was constructed under culture conditions in which the decellularized liver tissue-derived LEM scaffold and the multiwell microfluidic device were combined, followed by treatment with obeticholic acid (OCA) at different concentrations. OCA (Obeticholic acid) is a semi-synthetic bile acid analogue that has conventionally been used to treat cholangitis and is a drug candidate whose efficacy has recently been verified in non-alcoholic steatohepatitis clinical trials. The NASH group was treated with 800 μM fatty acid for 3 days to induce a disease, and the NASH+OCA group was treated with 800 μM fatty acid and the corresponding drug for 3 days at different concentrations.
as §1, with “ezetimibe (Eze)” for “obeticholic acid (OCA)”, “Eze (Ezetimibe)” for “OCA (Obeticholic acid)”, “cholesterol absorption inhibitor and is a drug candidate” for “semi-synthetic bile acid analogue”, “hyperglycemic cholesterol” for “cholangitis”, “lipid abnormalities.” for “is a drug candidate whose efficacy has recently been verified in non-alcoholic steatohepatitis clinical trials.”, “NASH+Eze” for “NASH+OCA”
as §1, with “dapagliflozin (DAPA)” for “obeticholic acid (OCA)”, “DAPA (Dapagliflozin)” for “OCA (Obeticholic acid)”, “sodium-glucose transporter inhibitor and is a drug candidate” for “semi-synthetic bile acid analogue”, “diabetes.” for “cholangitis and is a drug candidate whose efficacy has recently been verified in non-alcoholic steatohepatitis clinical trials.”, “NASH+DAPA” for “NASH+OCA”

[3] = 800 μM fatty acid + drug for 3 days at different concentrations
[4] = drug concentration of 10 μM or more

In the case of CC[C@H]1[C@@H](O)[C@@H]2[C@H](CC[C@]3(C)[C@@H]([C@H](C)CCC(=O)O)CC[C@@H]23)[C@@]2(C)CC[C@@H](O)C[C@@H]12 [OCA, obeticholic acid], the “viability of the normal liver organoids” value ([1]; 1 μM drug) is reported as no less than 80%, the “viability of the normal liver organoids” value ([1]; 10 μM drug) is reported as 70% and the “viability of the normal liver organoids” value ([1]; 100 μM drug) is reported as “about 60%”. The liver toxicity ([1]; as the treatment concentration increased) was “increased”.
With O=C1[C@H](CC[C@H](O)c2ccc(F)cc2)[C@@H](c2ccc(O)cc2)N1c1ccc(F)cc1 [Eze, ezetimibe] the “viability of the normal liver organoids” value ([1]; 1 μM to 10 μM drug) was no less than 70%, the “viability of the normal liver organoids” value ([1]; 100 μM drug) was “about 50%” and the “amount of fat accumulation” value [2, 3] was “reduced as the concentration increased”. For the same compound, the “morphology and structure of the organoid” value [2, 3] was “recovered”, the “expression of the fibrosis marker, quantitative PCR” value [2, 4] was “decreased to a level similar to that in the normal organoid” and the “expression of the inflammation marker, quantitative PCR” value [2, 4] was “decreased to a level similar to that in the normal organoid”. For the same compound, the “expression of fibrosis-related marker (SMA), quantitative PCR” value ([2]; vs NASH group, 3 days) was “decreased” and the “expression of inflammation-related marker (TNFα), quantitative PCR” value ([2]; vs NASH group, 3 days) was “decreased”.
With CCOc1ccc(Cc2cc([C@@H]3O[C@H](CO)[C@@H](O)[C@H](O)[C@H]3O)ccc2Cl)cc1 [DAPA, dapagliflozin] the “viability of the normal liver organoids” value ([1]; 10 μM drug) was no less than 80%, the “viability of the normal liver organoids” value ([1]; 100 μM drug) was “about 60%” and the “viability of the normal liver organoids” value ([1]; concentration of up to 1 μM) was “not affected”.
